Data from patent publication US20160016951A1 (Merck Patent GmbH, priority 2014, published 2016).
Read-outs that look alike come from different tables or passages of the source.

Molecular target: T1, CDK8 (CDK8/CycC) (Homo sapiens, UniProt P49336)
T1 construct: purchased Invitrogen PV4402
Test: FRET based Lanthascreen binding competition assay
Method: FRET based Lanthascreen binding competition assay: A dye-labeled ATP competitive probe served as a FRET acceptor upon binding to CDK8 labeled with a strepavidin —Eu-chelate (via abiotinylated anti His antibody). […] In case this probe was competed by an inhibitor as such a signal cannot be generated any more. The CDK8 used for this assay was a protein co-expressed with CycC.
The assay procedure for an assay in a 1536 well plate was performed according to the following: 2 μL CDK8/biotin-anti-His Ab/SA-Eu mix in Assay buffer were pipetted into the wells of a micro plate.
1 μL compound in 20 mM Hepes buffer/5% DMSO was added. The plate was shaken for 30 sec and incubated for 20 min at RT. 2 μL Alexa647-probe in assay buffer were added. The plate was shaken for 30 sec again and incubated for 60 min at RT in the dark. Then the plate was read out on a Perkin Elmer Envision (mode LANCE/TRF, excitation 340 nm emission 650 nm).

[1] = 5 nM CDK8/CycC, 10 nM Alexa647-Tracer, 1% DMSO, 60 min at RT, read-out: IC50 CDK8 binding

T1 sequence (P49336 whole entry): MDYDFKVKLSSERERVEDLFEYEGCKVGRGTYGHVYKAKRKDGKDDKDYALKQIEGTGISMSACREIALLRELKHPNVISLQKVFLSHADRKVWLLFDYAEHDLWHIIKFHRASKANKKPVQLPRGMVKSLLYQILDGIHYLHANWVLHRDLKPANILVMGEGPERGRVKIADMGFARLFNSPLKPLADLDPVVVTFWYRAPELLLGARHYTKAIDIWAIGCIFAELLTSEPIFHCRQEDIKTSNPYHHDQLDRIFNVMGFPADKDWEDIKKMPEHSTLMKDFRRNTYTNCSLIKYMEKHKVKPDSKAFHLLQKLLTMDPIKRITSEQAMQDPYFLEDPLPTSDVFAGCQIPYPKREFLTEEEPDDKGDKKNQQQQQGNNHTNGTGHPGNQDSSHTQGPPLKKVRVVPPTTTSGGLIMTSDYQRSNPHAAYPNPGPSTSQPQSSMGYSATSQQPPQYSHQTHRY
T1 sequence (P24863 whole entry partner): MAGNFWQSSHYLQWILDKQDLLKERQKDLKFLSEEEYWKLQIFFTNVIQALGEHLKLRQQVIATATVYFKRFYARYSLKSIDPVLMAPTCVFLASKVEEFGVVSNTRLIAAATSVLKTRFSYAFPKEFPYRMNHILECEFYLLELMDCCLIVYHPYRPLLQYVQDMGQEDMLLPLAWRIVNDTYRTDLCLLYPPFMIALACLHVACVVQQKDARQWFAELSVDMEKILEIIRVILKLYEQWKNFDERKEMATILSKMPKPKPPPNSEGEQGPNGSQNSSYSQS

Compound	IC50 [1] [nM]	IC50 [nM]
CC(=O)N1CCN(c2ccc3cncc(-c4ccc(-c5cnn(C)c5)cc4)c3c2)CC1 [Compound 125, 1-(4-{4-[4-(1-Methyl-1H-pyrazol-4-yl)-phenyl]-isoquinolin-6-yl}-piperazin-1-yl)-ethanone]	101 to 500	
Cn1cc(-c2ccc(-c3cncc4ccc(N5CCNC(=O)C5)cc34)cc2)cn1 [Compound 116, 4-{4-[4-(1-Methyl-1H-pyrazol-4-yl)-phenyl]-isoquinolin-6-yl}-piperazin-2-one]	10 to 100	
CN1c2ccc(-c3cncc4ccc(C(=O)NC5(C)CC5)nc34)cc2CS1(=O)=O [Compound 8, 8-(1-Methyl-2,2-dioxo-2,3-dihydro-1H-benzo[c]isothiazol-5-yl)-[1,6]naphthyridine-2-carboxylic acid (1-methyl-cyclopropyl)-amide]	< 10	
CN1c2ccc(-c3cncc4ccc(N5CCCC5=O)cc34)cc2CS1(=O)=O [Compound 129, 1-(4-(1-Methyl-2,2-dioxido-1,3-dihydrobenzo[c]isothiazol-5-yl)isoquinolin-6-yl)pyrrolidin-2-one]	10 to 100	
Cn1cc(-c2ccc(-c3cncc4ccc(N5CCCC5=O)cc34)cc2)cn1 [Compound 128, 1-(4-(4-(1-Methyl-1H-pyrazol-4-yl)phenyl)isoquinolin-6-yl)pyrrolidin-2-one]	10 to 100	
CNC(=O)c1ccc2cncc(-c3ccc4c(c3)N(C)C(=O)C4)c2n1 [Compound 15, 8-(1-methyl-2-oxo-2,3-dihydro-1H-indol-6-yl)-[1,6]naphthyridine-2-carboxylic acid methylamide]	< 10	
Cn1cc(-c2ccc(-c3cncc4ccc(C(=O)N5CCN(C(=O)OC(C)(C)C)CC5)cc34)cc2)cn1 [Compound 124, tert-butyl 4-(4-(4-(1-methyl-1H-pyrazol-4-yl)phenyl)isoquinoline-6-carbonyl)piperazine-1-carboxylate]	101 to 500	
COc1ccc(CNC(=O)c2ccc3cncc(-c4ccc(-c5cnn(C)c5)cc4)c3n2)cc1 [Compound 81, N-(4-methoxybenzyl)-8-(4-(1-methyl-1H-pyrazol-4-yl)phenyl)-1,6-naphthyridine-2-carboxamide]	10 to 100	
CNC(=O)c1ccc2cncc(-c3ccc(-c4cnn(C)c4)cc3C)c2n1 [Compound 43, N-methyl-8-(2-methyl-4-(1-methyl-1H-pyrazol-4-yl)phenyl)-1,6-naphthyridine-2-carboxamide]	10 to 100	
CC(C)(O)Cn1cc(-c2ccc(-c3cncc4ccc(NS(C)(=O)=O)cc34)cc2)cn1 [Compound 138, N-(4-(4-(1-(2-hydroxy-2-methylpropyl)-1H-pyrazol-4-yl)phenyl)isoquinolin-6-yl)methanesulfonamide]	< 10	
COC1CN(C(=O)c2ccc3cncc(-c4ccc5c(cnn5CC(C)(C)O)c4)c3n2)C1 [Compound 52, (8-(1-(2-hydroxy-2-methylpropyl)-1H-indazol-5-yl)-1,6-naphthyridin-2-yl)(3-methoxyazetidin-1-yl)methanone]	10 to 100	
Cn1cc(-c2ccc(-c3cncc4ccc(C#N)cc34)cc2)cn1 [Compound 118, 4-(4-(1-methyl-1H-pyrazol-4-yl)phenyl)isoquinoline-6-carbonitrile]	10 to 100	
Nc1nccc2cc(C(=O)N3CCC[C@H]3c3ccc(Cl)cc3)ccc12 [Compound 137, (S)-(1-aminoisoquinolin-6-yl)(2-(4-chlorophenyl)pyrrolidin-1-yl)methanone]	10 to 100	
COC1CN(C(=O)c2ccc3cncc(-c4ccc(-c5ccn(C)n5)cc4)c3n2)C1 [Compound 156, (3-methoxyazetidin-1-yl)(8-(4-(1-methyl-1H-pyrazol-3-yl)phenyl)-1,6-naphthyridin-2-yl)methanone]	10 to 100	
COC1CN(C(=O)c2ccc3cncc(-c4ccc(-c5cnn(CC(C)(C)O)c5)cc4)c3c2)C1 [Compound 131, (4-(4-(1-(2-hydroxy-2-methylpropyl)-1H-pyrazol-4-yl)phenyl)isoquinolin-6-yl)(3-methoxyazetidin-1-yl)methanone]	10 to 100	
Cc1cc(C(N)=O)nc2c(-c3ccc(-c4cnn(C)c4)cc3)cncc12 [Compound 64, 4-Methyl-8-(4-(1-methyl-1H-pyrazol-4-yl)phenyl)-1,6-naphthyridine-2-carboxamide]	101 to 500	
Cn1cc(-c2ccc(-c3cncc4ccc(NS(=O)(=O)C5CC5)cc34)cc2)cn1 [Compound 162, Cyclopropanesulfonic acid {4-[4-(1-methyl-1H-pyrazol-4-yl)-phenyl]-isoquinolin-6-yl}-amide]	< 10	
O=C(c1ccc2cnccc2n1)N1CCC[C@H]1c1ccccc1 [Compound 54, (S)-(1,6-naphthyridin-2-yl)(2-phenylpyrrolidin-1-yl)methanone]	10 to 100	
COC1CN(C(=O)c2ccc3cncc(-c4ccc5nn(CC(C)(C)O)cc5c4)c3n2)C1 [Compound 33, (8-(2-(2-hydroxy-2-methylpropyl)-2H-indazol-5-yl)-1,6-naphthyridin-2-yl)(3-methoxyazetidin-1-yl)methanone]	< 10	

Compound	IC50 [1] [nM]	IC50 [nM]
CC(C)(O)Cn1cc(-c2ccc(-c3cncc4ccc(N5C(=O)Cc6ccccc65)cc34)cc2)cn1 [Compound 150, 1-(4-(4-(1-(2-hydroxy-2-methylpropyl)-1H-pyrazol-4-yl)phenyl)isoquinolin-6-yl)indolin-2-one]	10 to 100	
CNC(=O)c1ccc2cncc(-c3ccc(-c4cnn(C)c4)cc3F)c2n1 [Compound 17, 8-(2-fluoro-4-(1-methyl-1H-pyrazol-4-yl)phenyl)-N-methyl-1,6-naphthyridine-2-carboxamide]	< 10	
COC1CN(C(=O)c2ccc3cncc(-c4ccc5nn(CC(C)(C)O)cc5c4)c3c2)C1 [Compound 133, (4-(2-(2-hydroxy-2-methylpropyl)-2H-indazol-5-yl)isoquinolin-6-yl)(3-methoxyazetidin-1-yl)methanone]		10 to 100
Cn1cc(-c2ccc(-c3c(Cl)ncc4ccc(C(=N)N)nc34)cc2)cn1 [Compound 68, 7-chloro-8-(4-(1-methyl-1H-pyrazol-4-yl)phenyl)-1,6-naphthyridine-2-carboximidamide]	101 to 500	
CC(C)(O)Cn1cc2cc(-c3cncc4ccc(NS(C)(=O)=O)cc34)ccc2n1 [Compound 151, N-(4-(2-(2-hydroxy-2-methylpropyl)-2H-indazol-5-yl)isoquinolin-6-yl)methanesulfonamide]	< 10	
COC1(C)CN(C(=O)c2ccc3cncc(-c4ccc(-c5cnn(C)c5)cc4)c3n2)C1 [Compound 149, (3-methoxy-3-methylazetidin-1-yl)(8-(4-(1-methyl-1H-pyrazol-4-yl)phenyl)-1,6-naphthyridin-2-yl)methanone]	< 10	
CN1C(=O)CCc2cc(-c3cncc4ccc(C(=O)N5CC(F)(F)C5)cc34)ccc21 [Compound 158, 6-[6-(3,3-Difluoro-azetidine-1-carbonyl)-isoquinolin-4-yl]-1-methyl-3,4-dihydro-1H-quinolin-2-one]	10 to 100	
CNC(=O)c1ccc2c(N)ncc(-c3ccc(-c4cnn(C)c4)cc3F)c2n1 [Compound 40, 5-amino-8-(2-fluoro-4-(1-methyl-1H-pyrazol-4-yl)phenyl)-N-methyl-1,6-naphthyridine-2-carboxamide]	10 to 100	
Nc1ncc(-c2ccc3c(c2)NC(=O)C3)c2cc(C(=O)N3CC(F)(F)C3)ccc12 [Compound 154, 6-(1-amino-6-(3,3-difluoroazetidine-1-carbonyl)isoquinolin-4-yl)indolin-2-one]	10 to 100	
C[C@@H](NC(=O)c1ccc2cncc(-c3ccc(-c4cnn(C)c4)cc3)c2n1)c1ccccc1 [Compound 24, (R)-8-(4-(1-methyl-1H-pyrazol-4-yl)phenyl)-N-(1-phenylethyl)-1,6-naphthyridine-2-carboxamide]	< 10	
N#Cc1ccc2cncc(-c3ccc4c(c3)CS(=O)(=O)N4)c2c1 [Compound 193, 4-(2,2-dioxido-1,3-dihydrobenzo[c]isothiazol-5-yl)isoquinoline-6-carbonitrile]	10 to 100	
N#Cc1ccc2cncc(-c3ccc4c(c3)NC(=O)C4)c2c1 [Compound 148, 4-(2-oxoindolin-6-yl)isoquinoline-6-carbonitrile]	10 to 100	
O=C(c1ccc2cncc(-c3ccc4c(c3)CS(=O)(=O)N4)c2c1)N1CCC1 [Compound 192, azetidin-1-yl(4-(2,2-dioxido-1,3-dihydrobenzo[c]isothiazol-5-yl)isoquinolin-6-yl)methanone]	< 10	
Cc1cncc2ccc(C(=O)N3CCC[C@H]3c3ccc(Br)cc3)nc12 [Compound 92, (S)-(2-(4-bromophenyl)pyrrolidin-1-yl)(8-methyl-1,6-naphthyridin-2-yl)methanone]	< 10	
Cn1cc(-c2ccc(-c3cncc4ccc(N5CCC(=O)C5)cc34)cc2)cn1 [Compound 115, 1-{4-[4-(1-Methyl-1H-pyrazol-4-yl)-phenyl]-isoquinolin-6-yl}-pyrrolidin-3-one]	10 to 100	
Cc1cc2cncc(-c3ccc4c(c3)CS(=O)(=O)N4C)c2nc1C(=O)NC1CC1 [Compound 28, 3-Methyl-8-(1-methyl-2,2-dioxo-2,3-dihydro-1H-benzo[c]isothiazol-5-yl)-[1,6]naphthyridine-2-carboxylic acid cyclopropylamide]	< 10	
CC(C)(O)Cn1cc(-c2ccc(-c3cncc4ccc(C(=O)N5CC(F)(F)C5)cc34)cc2)cn1 [Compound 136]	10 to 100	
CN1C(=O)Cc2ccc(-c3cnc(N)c4ccc(C(=O)N5CC(F)(F)C5)cc34)cc21 [Compound 164, 6-[1-Amino-6-(3,3-difluoro-azetidine-1-carbonyl)-isoquinolin-4-yl]-1-methyl-1,3-dihydro-indol-2-one]	10 to 100	
